Earlier results as cited in US20210338702A1, “A teniposide injection with high dilution stability and preparation method thereof” (JIANGSU LINGHANG BIOLOGICAL TECHNOLOGY CO., LTD., priority 2018, published 2021).

Columns and labels:
[1] = compared with the same type of drug etoposide

- Solubility in water: almost insoluble in water
Structure (SMILES): COc1cc([C@@H]2c3cc4c(cc3[C@@H](O[C@@H]3O[C@@H]5CO[C@@H](c6cccs6)O[C@H]5[C@H](O)[C@H]3O)[C@H]3COC(=O)[C@H]23)OCO4)cc(OC)c1O [Teniposide]
- Biological activity relative to etoposide [1]: 5-10 times
